{"source": "patent US7985072B2", "about": "“Method and apparatus for tooth rejuvenation and hard tissue modification” (Rejuvedent LLC, priority 2005, dated 2011)", "key": {"[1]": {"assay": "Depth of the etched (porous) enamel layer with aqueous citric acid solution, parameters of equation (1)", "source_text": "The inventors conducted a series of tests to determine the optimal pH, temperature and time for tooth rejuvenation, and for designing various devices for the tooth rejuvenation procedure. […] The enamel surface is not homogeneous, it contains inorganic components, such as hydroxyapatite, in the form of crystals oriented towards its surface. The enamel surface also contains organic components, such as proteins. When the organic and inorganic components are exposed to an aqueous acid solution, such exposure leads to the deconstruction and removal of these components to a certain depth into the enamel, forming a superficial porous layer. Stains, bacteria and the weak components of the enamel are removed from the porous layer, bleached or destroyed by the acid. Exposure time, pH and the concentration and temperature of the solution all affect the depth of tissue treatment and structure of surface after treatment. The removal and bleaching of the organic component is important because this component contains the most pigment. The organic component is however, tightly bound to the inorganic component, which occurs during tooth formation and is not affected by factors such as frequency of tooth brushing, or the type of toothpaste used. Because of this, bleaching removes both the organic and the bonded inorganic components.\nThe ability of an aqueous acidic solution to deconstruct and dissolve both organic and inorganic components depends on the period of time, pH, concentration, and temperature at which the process occurs. The color of the enamel after stain removal and bleaching is determined by how closely the structure after etching matches the natural structure and how well light is scattered from the surface of the tooth. Remineralization is however, a slow process, so caution in carrying out the procedure is recommended, and it is desirable to protect the new surface with a hard material. To achieve this, the present invention proposes the use of a high concentration of acid to minimize the time of treatment. For a high concentration of acid to be used safely within the oral cavity, two fundamental safety concerns need to be addressed: firstly toxicity and secondly soft tissue damage. To completely eliminate the toxicity problem, especially for home use, we propose the use of an edible acid which is non-toxic when ingested. The volume of acid for any application in the present invention is limited to several cubic centimeters. After dissolution in saliva the concentration of the acid ingested will drop, and the pH will increase, which is typical for foodstuffs. A typical pH for food acids is 2.5 or more. We have studied the effect of a low pH (<2.5) edible acid on intact enamel.\nThe temperature of the acid is another parameter to be optimized for enamel etching when using a high concentration of acid. An increase in temperature increases the depth of etching due to two factors: first, it increases the diffusion coefficient and, second, the rate of the chemical reaction between the acid and the enamel due to Arrenius law. […] These graphs can be described by the following formula: […]\nHere, hw is the depth of the porous layer of enamel in μm after t min of etching as a function of t. Parameters cc, ct, and D can be the functions of both temperature T and pH.\nThe parameters α, cc, and D were found using the best square fit."}, "[2]": {"assay": "Six-hour exposure of extracted teeth to gel or citric acid", "conditions": "+24° C.", "source_text": "Control of etching using highly concentrated edible acid can be achieved by using different additives. The interaction between acid and hard tissue leads to a dissolution of mineral components and modification of organic components. Three types of dissolution are known: Type I, where enamel rods are removed preferentially, Type II, where the organic matrix is removed preferentially, and Type III, where both Type I and Type II dissolution take place. […] The present invention, proposes to control the etching process, using edible acid with a special additive. One of control mechanisms involves additives, including, but not limited to, the ions of Ca Cr, Ba Cd, Mg, P, SiF, and their compounds, such as PO4. Other non-organic or organic additives may also be used. Additions of such ion combinations may slow the dissolution of the inter-prismatic regions or may provide for re-crystallization of hydroxyapatite crystallites, or the building of new crystallites of fluroapatite. The use of such additives can be effective in the control of tooth etching, or in the preparation of the tooth surface for the application of a protective or cosmetic coating, or for the thermal re-crystallization of the tooth surface.\nExtracted teeth with healthy enamel were used in the experiment. One half of enamel surface of each tooth was covered with a protective cover (“control side”). The other side (“treatment side”) was left unprotected. […]"}, "[3]": {"assay": "180-minute exposure of tooth halves to citric acid solution or gel, then methylene blue", "conditions": "pH=1.5, +20° C., 180 minutes", "method": "Exposure in both cases was for 180 minutes and the tooth was then washed in distilled water. […] The tooth was then exposed to an aqueous solution of methylene blue."}, "[4]": {"system": "maxillary right central incisor of a volunteer", "assay": "Example 2: at-home tooth whitening treatment", "conditions": "for Normalized optical coefficient of reflection: before treatment 1"}}, "data": [{"molecule": "O=C(O)CC(O)(CC(=O)O)C(=O)O", "note": "[citric acid]", "values": [{"measurement": "etched depth of the tooth enamel", "setting": "[1]; 50° C., pH=1.5, from the presented graphs (exposure time 10 min)", "value": 40, "unit": "μm"}, {"measurement": "D, parameter of equation (1), thickness of porous (etched) layer of enamel", "setting": "[1]; T = 50° C., pH 1", "value": 94.035, "unit": "μm^2/min"}, {"measurement": "α1, parameter of equation (1), thickness of porous (etched) layer of enamel", "setting": "[1]; T = 50° C., pH 1", "value": 1.069, "unit": "μm/min"}, {"measurement": "α, parameter of equation (1), thickness of porous (etched) layer of enamel", "setting": "[1]; T = 50° C., pH 1", "value": 3.195, "unit": "μm/min"}, {"measurement": "D, parameter of equation (1), thickness of porous (etched) layer of enamel", "setting": "[1]; T = 50° C., pH 2", "value": 4.646, "unit": "μm^2/min"}, {"measurement": "α1, parameter of equation (1), thickness of porous (etched) layer of enamel", "setting": "[1]; T = 50° C., pH 2", "value": 0.559, "unit": "μm/min"}, {"measurement": "α, parameter of equation (1), thickness of porous (etched) layer of enamel", "setting": "[1]; T = 50° C., pH 2", "value": 1.022, "unit": "μm/min"}, {"measurement": "α1, parameter of equation (1), thickness of porous (etched) layer of enamel", "setting": "[1]; T = 50° C., pH 2.5", "value": "−0.018", "unit": "μm/min"}, {"measurement": "α, parameter of equation (1), thickness of porous (etched) layer of enamel", "setting": "[1]; T = 50° C., pH 2.5", "value": 0.211, "unit": "μm/min"}, {"measurement": "D, parameter of equation (1), thickness of porous (etched) layer of enamel", "setting": "[1]; pH = 1.5, 20 °C", "value": 2.604, "unit": "μm^2/min"}, {"measurement": "α1, parameter of equation (1), thickness of porous (etched) layer of enamel", "setting": "[1]; pH = 1.5, 20 °C", "value": 0.158, "unit": "μm/min"}, {"measurement": "α, parameter of equation (1), thickness of porous (etched) layer of enamel", "setting": "[1]; pH = 1.5, 20 °C", "value": 0.524, "unit": "μm/min"}, {"measurement": "D, parameter of equation (1), thickness of porous (etched) layer of enamel", "setting": "[1]; pH = 1.5, 37 °C", "value": 23.124, "unit": "μm^2/min"}, {"measurement": "α1, parameter of equation (1), thickness of porous (etched) layer of enamel", "setting": "[1]; pH = 1.5, 37 °C", "value": 0.515, "unit": "μm/min"}, {"measurement": "α, parameter of equation (1), thickness of porous (etched) layer of enamel", "setting": "[1]; pH = 1.5, 37 °C", "value": 1.751, "unit": "μm/min"}, {"measurement": "D, parameter of equation (1), thickness of porous (etched) layer of enamel", "setting": "[1]; pH = 1.5, 40 °C", "value": 36.801, "unit": "μm^2/min"}, {"measurement": "α1, parameter of equation (1), thickness of porous (etched) layer of enamel", "setting": "[1]; pH = 1.5, 40 °C", "value": 0.469, "unit": "μm/min"}, {"measurement": "α, parameter of equation (1), thickness of porous (etched) layer of enamel", "setting": "[1]; pH = 1.5, 40 °C", "value": 1.921, "unit": "μm/min"}, {"measurement": "D, parameter of equation (1), thickness of porous (etched) layer of enamel", "setting": "[1]; pH = 1.5, 45 °C", "value": 74.738, "unit": "μm^2/min"}, {"measurement": "α1, parameter of equation (1), thickness of porous (etched) layer of enamel", "setting": "[1]; pH = 1.5, 45 °C", "value": 0.833, "unit": "μm/min"}, {"measurement": "α, parameter of equation (1), thickness of porous (etched) layer of enamel", "setting": "[1]; pH = 1.5, 45 °C", "value": 2.767, "unit": "μm/min"}, {"measurement": "D, parameter of equation (1), thickness of porous (etched) layer of enamel", "setting": "[1]; pH = 1.5, 50 °C", "value": 121.664, "unit": "μm^2/min"}, {"measurement": "α1, parameter of equation (1), thickness of porous (etched) layer of enamel", "setting": "[1]; pH = 1.5, 50 °C", "value": 1.31, "unit": "μm/min"}, {"measurement": "α, parameter of equation (1), thickness of porous (etched) layer of enamel", "setting": "[1]; pH = 1.5, 50 °C", "value": 3.755, "unit": "μm/min"}, {"measurement": "D, parameter of equation (1), thickness of porous (etched) layer of enamel", "setting": "[1]; pH = 1.5, 60 °C", "value": 122.528, "unit": "μm^2/min"}, {"measurement": "α1, parameter of equation (1), thickness of porous (etched) layer of enamel", "setting": "[1]; pH = 1.5, 60 °C", "value": 1.504, "unit": "μm/min"}, {"measurement": "α, parameter of equation (1), thickness of porous (etched) layer of enamel", "setting": "[1]; pH = 1.5, 60 °C", "value": 4.124, "unit": "μm/min"}, {"measurement": "hardness of treated surface (dental probe / versus control side)", "setting": "[2]", "value": "easily damaged by scratching with a dental probe"}, {"measurement": "predominant etching pattern", "setting": "[2]", "value": "Type I etching"}, {"measurement": "specular reflection property of tooth surface", "setting": "[2]", "value": "completely lost its specular reflection property"}, {"measurement": "whitening effect of treated sides", "setting": "[2]", "value": "comparable"}, {"measurement": "coloration by aqueous methylene blue after exposure", "setting": "[3]", "value": "colored by methylene blue"}, {"measurement": "type of enamel etching", "setting": "[3]", "value": "Type I etching"}, {"measurement": "whitening effect", "setting": "[3]", "value": "strong whitening effect"}, {"measurement": "Normalized optical coefficient of reflection", "setting": "[4]; 1 months after treatment", "value": 1.3, "unit": "a.u."}, {"measurement": "Normalized optical coefficient of reflection", "setting": "[4]; 4 months after treatment", "value": 1.15, "unit": "a.u."}, {"measurement": "Normalized optical coefficient of reflection", "setting": "[4]; after 3 weeks of daily treatment (pH=1.5, room temperature, 2 minutes)", "value": 1.34, "unit": "a.u."}, {"measurement": "change in enamel gloss and reflection", "setting": "[4]; after three-week treatment", "value": "No visible change in enamel gloss and reflection"}, {"measurement": "improvement in tooth whitening (coefficient of reflection for white light) versus original color", "setting": "[4]; after three-week treatment", "value": 35, "unit": "%"}, {"measurement": "dentinal hypersensitivity and change in gingival tissue", "setting": "[4]; after treatment or during review appointments", "value": "No dentinal hypersensitivity"}, {"measurement": "pain or discomfort throughout treatment", "setting": "[4]; daily 2 minutes for three weeks", "value": "did not report any pain or discomfort"}, {"measurement": "detrimental changes in soft tissues or enamel (post-treatment caries)", "setting": "[4]; four month review visit", "value": "no detrimental changes"}, {"measurement": "improvement compared with original coefficient of reflection", "setting": "[4]; four months after treatment", "value": "approximately 15%"}, {"measurement": "whitening effect exceeding the original", "setting": "[4]; one month after treatment", "value": 33, "unit": "%"}]}]}
